{"source": "ChEMBL document CHEMBL1131890", "about": "“Syntheses and evaluation of amidinobenzofuran derivatives as tryptase inhibitors” (Bioorg Med Chem Lett, 1999)", "key": {"Prothrombin": {"target": "Prothrombin (Homo sapiens, UniProt P00734)", "experiment": "Inhibition of thrombin"}, "[1]": {"experiment": "Compound was tested for inhibitory activity against tryptase", "design": "species or system Homo sapiens"}, "Tryptase [2]": {"target": "T1, Tryptase (Homo sapiens, UniProt Q9BZJ3+Q15661+Q9NRR2)", "experiment": "Inhibition of tryptase activity", "type": "protein assay"}, "Tryptase [3]": {"target": "T1, Tryptase", "experiment": "Compound was tested for inhibitory activity against tryptase; Not determined (value more than […])", "type": "protein assay"}, "Rattus norvegicus": {"system": "Rattus norvegicus", "experiment": "Effect of compound on PCA reaction in rats at a i.v. dose of 1 mg/kg 1 hr prior to antigen challenge", "type": "functional", "conditions": "route intravenous"}}, "data": [{"smiles": "N=C(N)c1ccc2oc(C(=O)N3CCN(C(=O)CCC(=O)N4CCN(C(=O)c5cc6cc(C(=N)N)ccc6o5)CC4)CC3)cc2c1", "values": [{"measurement": "Ki", "setting": "Prothrombin", "result": 51, "unit": "µM"}, {"measurement": "Ki", "setting": "[1]", "result": 0.015, "unit": "µM"}]}, {"smiles": "N=C(N)c1ccc2oc(C(=O)N3CCN(C(=O)COc4ccc(OCC(=O)Nc5ccc(-c6c[nH]cn6)cc5)cc4)CC3)cc2c1", "values": [{"measurement": "Ki", "setting": "Prothrombin", "result": 5.3, "unit": "µM"}, {"measurement": "Ki", "setting": "[1]", "result": 0.0068, "unit": "µM"}]}, {"smiles": "N=C(N)NCCCCC(=O)N1CCN(C(=O)COc2ccc(OCC(=O)N3CCN(C(=O)CCCCNC(=N)N)CC3)cc2)CC1", "values": [{"measurement": "Ki", "setting": "Tryptase [2]", "result": 80000, "unit": "nM"}]}, {"smiles": "N=C(N)c1ccc2oc(C(=O)N3CCN(C(=O)COc4ccc(OCC(=O)N5CCNCC5)cc4)CC3)cc2c1", "values": [{"measurement": "Ki", "setting": "Tryptase [2]", "result": 67, "unit": "nM"}]}, {"smiles": "N=C(N)c1ccc2oc(C(=O)N3CCN(C(=O)COc4ccccc4)CC3)cc2c1", "values": [{"measurement": "Ki", "setting": "Tryptase [2]", "result": 3000, "unit": "nM"}]}, {"smiles": "N=C(N)c1ccc2oc(C(=O)N3CCN(C(=O)CCCC(=O)N4CCN(C(=O)c5cc6cc(C(=N)N)ccc6o5)CC4)CC3)cc2c1", "values": [{"measurement": "Ki", "setting": "Prothrombin", "result": 32, "unit": "µM"}, {"measurement": "Ki", "setting": "[1]", "result": 0.0088, "unit": "µM"}]}, {"smiles": "N=C(N)c1ccc2oc(C(=O)N3CCN(C(=O)CCCCC(=O)N4CCN(C(=O)c5cc6cc(C(=N)N)ccc6o5)CC4)CC3)cc2c1", "values": [{"measurement": "Ki", "setting": "Prothrombin", "result": 23, "unit": "µM"}, {"measurement": "Ki", "setting": "[1]", "result": 0.00086, "unit": "µM"}]}, {"smiles": "N=C(N)c1ccc2oc(C(=O)N3CCN(C(=O)CC(=O)N4CCN(C(=O)c5cc6cc(C(=N)N)ccc6o5)CC4)CC3)cc2c1", "values": [{"measurement": "Ki", "setting": "Prothrombin", "result": 82, "unit": "µM"}, {"measurement": "Ki", "setting": "[1]", "result": 0.65, "unit": "µM"}]}, {"smiles": "N=C(N)c1ccc2oc(C(=O)N3CCN(C(=O)COc4ccc(OCC(=O)N5CCCCC5)cc4)CC3)cc2c1", "values": [{"measurement": "Ki", "setting": "Tryptase [2]", "result": 60, "unit": "nM"}]}, {"smiles": "O=C(CCCC(=O)N1CCNCC1)C(=O)N1CCN(C(=O)COc2ccc(OCC(=O)N3CCN(C(=O)C(=O)CCCC(=O)N4CCNCC4)CC3)cc2)CC1", "values": [{"measurement": "Ki", "setting": "Tryptase [3]", "result": "Value more than 1x10^4"}]}, {"smiles": "N=C(N)Nc1ccc2oc(C(=O)N3CCN(C(=O)COc4ccc(OCC(=O)N5CCN(C(=O)c6cc7cc(NC(=N)N)ccc7o6)CC5)cc4)CC3)cc2c1", "values": [{"measurement": "Ki", "setting": "Prothrombin", "result": 24, "unit": "µM"}, {"measurement": "Ki", "setting": "Tryptase [2]", "result": 1100, "unit": "nM"}]}, {"smiles": "CN(C)C(=N)c1ccc2oc(C(=O)N3CCN(C(=O)COc4ccc(OCC(=O)N5CCN(C(=O)c6cc7cc(C(=N)N(C)C)ccc7o6)CC5)cc4)CC3)cc2c1", "values": [{"measurement": "Ki", "setting": "Tryptase [2]", "result": 6600, "unit": "nM"}]}, {"smiles": "N=C(N)c1ccc2oc(C(=O)N3CCN(C(=O)COc4ccccc4OCC(=O)N4CCN(C(=O)c5cc6cc(C(=N)N)ccc6o5)CC4)CC3)cc2c1", "values": [{"measurement": "Ki", "setting": "Prothrombin", "result": 88, "unit": "µM"}, {"measurement": "Ki", "setting": "Tryptase [2]", "result": 1.1, "unit": "nM"}]}, {"smiles": "N=C(N)c1ccc2oc(C(=O)N3CCN(C(=O)CCCCCCC(=O)N4CCN(C(=O)c5cc6cc(C(=N)N)ccc6o5)CC4)CC3)cc2c1", "values": [{"measurement": "Ki", "setting": "Tryptase [2]", "result": 0.12, "unit": "nM"}]}, {"smiles": "N=C(N)N1CCc2sc(C(=O)N3CCN(C(=O)COc4ccc(OCC(=O)N5CCN(C(=O)c6cc7c(s6)CCN(C(=N)N)C7)CC5)cc4)CC3)cc2C1", "values": [{"measurement": "Ki", "setting": "Prothrombin", "result": 29, "unit": "µM"}, {"measurement": "Ki", "setting": "Tryptase [2]", "result": 0.046, "unit": "nM"}]}, {"smiles": "N=C(N)c1ccc2sc(C(=O)N3CCN(C(=O)COc4ccc(OCC(=O)N5CCN(C(=O)c6cc7cc(C(=N)N)ccc7s6)CC5)cc4)CC3)cc2c1", "values": [{"measurement": "Ki", "setting": "Prothrombin", "result": 22, "unit": "µM"}, {"measurement": "Ki", "setting": "Tryptase [2]", "result": 0.028, "unit": "nM"}]}, {"smiles": "N=C(N)NCCCCCCC(=O)N1CCN(C(=O)COc2ccc(OCC(=O)N3CCN(C(=O)CCCCCCNC(=N)N)CC3)cc2)CC1", "values": [{"measurement": "Ki", "setting": "Tryptase [2]", "result": 13000, "unit": "nM"}]}, {"smiles": "O=C(COc1ccc(OCC(=O)N2CCN(C(=O)CC(=O)N3CCNCC3)CC2)cc1)N1CCN(C(=O)CC(=O)N2CCNCC2)CC1", "values": [{"measurement": "Ki", "setting": "Tryptase [2]", "result": 13000, "unit": "nM"}]}, {"smiles": "N=C(N)NCCCCCC(=O)N1CCN(C(=O)COc2ccc(OCC(=O)N3CCN(C(=O)CCCCCNC(=N)N)CC3)cc2)CC1", "values": [{"measurement": "Ki", "setting": "Tryptase [2]", "result": 23000, "unit": "nM"}]}, {"smiles": "N=C(N)c1ccc2oc(C(=O)N3CCN(C(=O)CCCCCCCC(=O)N4CCN(C(=O)c5cc6cc(C(=N)N)ccc6o5)CC4)CC3)cc2c1", "values": [{"measurement": "Ki", "setting": "Prothrombin", "result": 230, "unit": "µM"}, {"measurement": "Ki", "setting": "Tryptase [2]", "result": 0.019, "unit": "nM"}]}, {"smiles": "N=C(N)c1ccc2oc(C(=O)N3CCN(C(=O)COc4ccc(OCC(=O)NCc5ccccc5)cc4)CC3)cc2c1", "values": [{"measurement": "Ki", "setting": "Prothrombin", "result": 28, "unit": "µM"}, {"measurement": "Ki", "setting": "[1]", "result": 0.037, "unit": "µM"}]}, {"smiles": "O=C(COc1ccc(OCC(=O)N2CCN(C(=O)c3cc4c(s3)CCNC4)CC2)cc1)N1CCN(C(=O)c2cc3c(s2)CCNC3)CC1", "values": [{"measurement": "Ki", "setting": "Tryptase [2]", "result": 970, "unit": "nM"}]}, {"smiles": "N=C(N)c1ccc2oc(C(=O)N3CCN(C(=O)COc4ccc(OCC(=O)N5CCN(C(=O)c6cc7cc(C(=N)N)ccc7o6)CC5)cc4)CC3)cc2c1", "values": [{"measurement": "Ki", "setting": "Prothrombin", "result": 32, "unit": "µM"}, {"measurement": "Ki", "setting": "Tryptase [2]", "result": 0.057, "unit": "nM"}]}, {"smiles": "N=C(N)c1ccc2oc(C(=O)N3CCN(C(=O)N4CCN(C(=O)c5cc6cc(C(=N)N)ccc6o5)CC4)CC3)cc2c1", "values": [{"measurement": "Ki", "setting": "Tryptase [2]", "result": 460, "unit": "nM"}]}, {"smiles": "N=C(N)c1ccc2oc(C(=O)N3CCN(C(=O)CO[C@H]4CCC[C@@H](OCC(=O)N5CCN(C(=O)c6cc7cc(C(=N)N)ccc7o6)CC5)CCC4)CC3)cc2c1", "values": [{"measurement": "Ki", "setting": "Prothrombin", "result": 15, "unit": "µM"}, {"measurement": "Ki", "setting": "Tryptase [2]", "result": 0.029, "unit": "nM"}, {"measurement": "inhibition in vivo at 1 mg/kg", "setting": "Rattus norvegicus", "result": 51, "unit": "%"}]}, {"smiles": "N=C(NCc1ccccc1)c1ccc2oc(C(=O)N3CCN(C(=O)COc4ccc(OCC(=O)N5CCN(C(=O)c6cc7cc(C(=N)NCc8ccccc8)ccc7o6)CC5)cc4)CC3)cc2c1", "values": [{"measurement": "Ki", "setting": "Tryptase [2]", "result": 1100, "unit": "nM"}]}, {"smiles": "N=C(N)c1ccc2oc(C(=O)N3CCN(C(=O)CCCCCC(=O)N4CCN(C(=O)c5cc6cc(C(=N)N)ccc6o5)CC4)CC3)cc2c1", "values": [{"measurement": "Ki", "setting": "Prothrombin", "result": 85, "unit": "µM"}, {"measurement": "Ki", "setting": "[1]", "result": 0.0012, "unit": "µM"}]}, {"smiles": "O=C(CCC(=O)N1CCNCC1)CC(=O)N1CCN(C(=O)COc2ccc(OCC(=O)N3CCN(C(=O)CC(=O)CCC(=O)N4CCNCC4)CC3)cc2)CC1", "values": [{"measurement": "Ki", "setting": "Tryptase [3]", "result": "Value more than 1x10^4"}]}, {"smiles": "CCOC(=O)COc1ccc(OCC(=O)N2CCN(C(=O)c3cc4cc(C(=N)N)ccc4o3)CC2)cc1", "values": [{"measurement": "Ki", "setting": "Tryptase [2]", "result": 210, "unit": "nM"}]}]}
